Each structure is given as a SMILES string.

In the assay the target is T1, human recombinant mGluR5 (Homo sapiens, UniProt P41594).
T1 construct: expressed in transfected cells; host or cells: HEK 293 cell line; cultured with tetracycline, hygromycin and geneticin; tetracycline withdrawn 3-7 days before the assay
T1 sequence (P41594 21-1212): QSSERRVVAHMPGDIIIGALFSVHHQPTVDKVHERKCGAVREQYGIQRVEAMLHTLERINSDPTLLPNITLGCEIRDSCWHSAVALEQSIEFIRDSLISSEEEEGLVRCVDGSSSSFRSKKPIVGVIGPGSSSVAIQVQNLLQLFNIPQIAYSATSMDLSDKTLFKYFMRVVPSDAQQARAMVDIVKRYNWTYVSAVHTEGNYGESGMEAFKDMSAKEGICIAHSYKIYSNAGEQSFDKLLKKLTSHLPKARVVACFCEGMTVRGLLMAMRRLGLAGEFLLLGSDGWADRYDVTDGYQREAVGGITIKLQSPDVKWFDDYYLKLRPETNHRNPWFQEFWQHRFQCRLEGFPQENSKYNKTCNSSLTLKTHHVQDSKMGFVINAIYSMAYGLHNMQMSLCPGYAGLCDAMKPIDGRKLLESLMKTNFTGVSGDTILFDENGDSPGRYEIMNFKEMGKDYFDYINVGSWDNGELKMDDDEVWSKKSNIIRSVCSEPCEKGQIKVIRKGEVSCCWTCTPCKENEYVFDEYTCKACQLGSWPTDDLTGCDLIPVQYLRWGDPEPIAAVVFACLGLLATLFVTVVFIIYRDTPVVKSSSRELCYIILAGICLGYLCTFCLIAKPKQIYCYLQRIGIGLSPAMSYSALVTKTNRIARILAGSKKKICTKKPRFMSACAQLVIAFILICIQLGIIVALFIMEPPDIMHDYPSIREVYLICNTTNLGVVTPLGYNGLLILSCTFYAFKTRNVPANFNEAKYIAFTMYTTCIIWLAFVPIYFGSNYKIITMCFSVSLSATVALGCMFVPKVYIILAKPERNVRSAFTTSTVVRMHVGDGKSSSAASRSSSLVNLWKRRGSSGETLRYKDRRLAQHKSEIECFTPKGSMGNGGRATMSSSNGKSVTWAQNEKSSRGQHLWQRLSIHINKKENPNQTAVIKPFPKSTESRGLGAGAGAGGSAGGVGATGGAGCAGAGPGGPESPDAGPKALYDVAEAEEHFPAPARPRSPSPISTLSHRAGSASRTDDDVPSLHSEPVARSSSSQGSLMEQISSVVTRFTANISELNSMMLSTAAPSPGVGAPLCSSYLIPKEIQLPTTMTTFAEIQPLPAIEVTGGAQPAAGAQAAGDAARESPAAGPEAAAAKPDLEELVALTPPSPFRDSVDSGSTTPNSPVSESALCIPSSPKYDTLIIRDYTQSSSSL
As to the kind of experiment: positive modulation of mGluR5, calcium based FLIPR assay in HEK 293 cells. The following applies: HEK 293 cell line expressing human recombinant mGluR5; peak height of Ca release fluorescence signal after glutamate at approximately 5% basal stimulation; nonlinear regression. The procedure: The positive modulation of mGluR5 is measured in a HEK 293 cell line expressing human recombinant mGluR5 and is detected with calcium based FLIPR assay. The cells are cultured with DMEM supplemented with 10% FCS, 2 μg/mL tetracycline, 100 μg/mL hygromycin and 500 μg/mL gneticin. The cell culture media is exchanged for tetracycline-free cell culture media 3-7 days before the assay. One day before the assay the cell culture medium is exchanged to DMEM without glutamine and phenol red and supplemented with 10% FCS, 100 μg/mL hygromycin and 500 μg/mL geneticin. On the assay day, the medium of the subconfluent cultures is removed and the cells are detached by addition of 2.5 ml EDTA(0.02%) per 175 cm2 culture flask for 1 minute. The cells are resuspend in Ringer solution (140 mM NaCl, 5 mM KCl, 2.5 mM CaCl2, 1.5 mM MgCl2, 5 mM Glucose, 10 mM Hepes; adjusted to pH 7.4 with NaOH), pooled and Ringer solution added to adjust the volume to 50 mL. The cell suspension is centrifuged for 5 min at 1500 U/min (425 g). The supernatant is removed and the cells washed a second time with 50 ml fresh Ringer solution and centrifuged again as before. The supernatant is again removed and the pellet resuspended in Ringer solution to 1,000,000 cells/ml (1×10^6 cells/mL). The cells are plated onto BD BioCoat Poly-D-Lysine 384 well plates (20.000 cells/well; 20 μl/well). The lid covered plates are then incubated until use at 37° C./10% CO2. For dye loading, 20 μl of Calcium-4 assay kit solution (prepared according to the manufacturer's description in Ringer solution) are added to the cells and the plates are incubated for 80 min 37° C. and then 10 min at room temperature.
Controls, Compound Dilution and Assay Execution:
Each assay plate contained wells with “high” and “low” controls:
Low controls 1% DMSO/ringer solution+basal glutamate activation (defined as 100% CTL).
High controls 10 μM CDPPB+basal glutamate activation (defined as 200% CTL).
Test compounds are dissolved and diluted in DMSO to 100-fold the desired concentrations. In a second step, the compounds are diluted in Ringer solution such that the compounds are 4-fold more concentrated than the desired final assay concentration. The final DMSO concentration was 1%.
20 μl of each compound solution are then transferred to the assay plate and the Ca2+ kinetic is measured to determine any intrinsic compound activity. After 5 min incubation in the FLIPR device, the second stimulation with 20 μl of glutamate in Ringer solution (glutamate concentration adjusted to approximately 5% basal stimulation of the maximal possible glutamate effect) is added and the kinetic Ca2+ response of the wells was measured for the modulation effect.
The peak height of the Ca release related fluorescence signal (9-66) is used for the EC50. The EC50 of the modulation is calculated over a nonlinear regression with GraphPad Prism (Table 1).
On to `O=C(Cn1nc(-c2ccc(F)cn2)cc1-c1ccc(F)cc1)N1CCN(c2ccccn2)CC1` [Example 7.01.59], for which the EC50 worked out at 118 nM.
For `Cc1cc(-c2cc(-c3ccccc3)n(CC(=O)N3CCN(c4ccccc4)CC3)n2)ccc1F` [Example 7.02.27] the value was 243 nM; for `Cc1cc(-c2cc(CC(C)C)n(CC(=O)N3CCN(c4ccccn4)CC3)n2)ccc1F` [Example 7.01.117], 28 nM.
On to `CCOc1ccccc1N1CCN(C(=O)Cn2nc(-c3ccccc3)cc2-c2ccccc2)CC1` [Example 7.01.11], for which the EC50 worked out at 1420 nM.
For `COc1cc(N2CCN(C(=O)Cn3nc(-c4ccc(F)cn4)cc3-c3ccc(F)cc3)CC2)ncn1` [Example 7.01.63] the value was 94 nM; for `CCc1cc(-c2cccc(C#N)c2)nn1CC(=O)N1CCN(c2ncccn2)CC1` [Example 7.01.160], 250 nM.
In the case of `CCCc1cc(-c2ccc(F)c(C)c2)nn1CC(=O)N1CCN(c2ncc(OC)cn2)CC1` [Example 7.01.82] it was 33 nM; in that of `CCc1cc(-c2ccc(C)c(F)c2)nn1CC(=O)N1CCN(c2ccccn2)CC1` [Example 7.01.182], 434 nM; in that of `N#Cc1ccccc1N1CCN(C(=O)Cn2nc(-c3ccccc3)cc2-c2ccccc2)CC1` [Example 7.01.10], 750 nM.
For `COc1cc(N2CCN(C(=O)Cn3nc(-c4cccc(Cl)c4)cc3-c3ccccc3)CC2)ncn1` [Example 7.01.148] the value was 20 nM; for `O=C(Cn1nc(-c2ccccc2)cc1-c1ccccc1)N1CCN(c2ccc(Cl)nn2)CC1` [Example 7.01.12], 216 nM; for `COc1cc(N2CCN(C(=O)Cn3nc(-c4ccc(F)c(OC)c4)cc3-c3ccccc3)CC2)ncn1` [Example 7.01.152], 26 nM.
For `CCc1cc(-c2ccc(F)cc2)nn1CC(=O)N1CCN(c2ncc(OC)cn2)CC1` [Example 7.01.76], the EC50 amounted to 388 nM.
`COc1cnc(N2CCN(C(=O)Cn3nc(-c4ccc(C)c(C)c4)cc3-c3ccccc3)CC2)nc1` [Example 7.01.103]: the EC50 came out at 24 nM.
Turning to `CCc1cc(-c2ccc(F)c(C)c2)nn1CC(=O)N1CCN(c2cc(OC)ccn2)CC1` [Example 7.01.68], the EC50 amounted to 74 nM.
For `O=C(Cn1nc(-c2ccccc2)cc1-c1ccccc1)N1CCN(c2ccc(Cl)cn2)CC1` [Example 7.01.09] the value was 373 nM; for `COc1cc(N2CCN(C(=O)Cn3nc(-c4cccc(C#N)c4)cc3-c3ccccc3)CC2)ncn1` [Example 7.01.170], 22 nM.
For `Cc1cc(-c2cc(-c3ccccc3)n(CC(=O)N3CCN(c4cc(OCCN5CCOCC5)ncn4)CC3)n2)ccc1F` [Example 7.05.01, 2-[3-(4-fluoro-3-methyl-phenyl)-5-phenyl-pyrazol-1-yl]-1-{4-[6-(2-morpholin-4-yl-ethoxy)-pyrimidin-4-yl]-piperazin-1-yl}-ethanone] the value was 40 nM.
With `COc1cc(N2CCN(C(=O)Cn3nc(-c4ccc(F)c(C)n4)cc3-c3ccccc3)CC2)ncn1` [Example 7.01.156], the EC50 amounted to 33 nM.
For `COc1cc(N2CCN(C(=O)Cn3nc(-c4ccc(F)c(C)c4)cc3-c3ccccc3)CC2)ncn1` [Example 7.01.03], the EC50 worked out at 11 nM.
`COCc1cc(-c2ccc(F)c(C)c2)nn1CC(=O)N1CCN(c2ccccn2)CC1` [Example 7.02.16]: the EC50 was found to be 237 nM.
In the case of `COc1cccc(-c2cc(C3CCCCC3)n(CC(=O)N3CCN(c4ncccn4)CC3)n2)c1` [Example 7.01.17], the concentration for a half-maximal effect (EC50) worked out at 117 nM.
Take `CCc1cc(-c2cccc(C#N)c2)nn1CC(=O)N1CCN(c2ncc(OC)cn2)CC1` [Example 7.01.162]: the EC50 was 343 nM.
In the case of `COCc1cc(-c2ccc(F)c(C)c2)nn1CC(=O)N1CCN(c2ncccn2)CC1` [Example 7.02.15] it was 153 nM; in that of `COc1cc(-c2cc(C(C)C)n(CC(=O)N3CCN(c4ncc(Br)cn4)CC3)n2)ccc1F` [Example 7.01.50], 512 nM; in that of `CCc1cc(-c2cccc(Cl)c2)nn1CC(=O)N1CCN(c2ccccn2)CC1` [Example 7.01.114], 153 nM.
For `COc1cc(N2CCN(C(=O)Cn3nc(-c4ccc(OC)c(C)c4)cc3-c3ccccc3)CC2)ncn1` [Example 7.01.184] the value was 145 nM.
For `COc1ccc(-c2cc(-c3ccccc3)n(CC(=O)N3CCN(c4ncccn4)CC3)n2)cc1C` [Example 7.01.177] the value was 24 nM.
On to `Cc1ccc(-c2cc(-c3ccccc3)nn2CC(=O)N2CCN(c3ncccn3)CC2)nc1C` [Example 7.01.133], for which the EC50 was found to be 652 nM.
Turning to `CCCc1cc(-c2ccc(F)c(C)n2)nn1CC(=O)N1CCN(c2cc(OC)ncn2)CC1` [Example 7.01.187], the EC50 is 360 nM.
In the case of `COc1ccc(-c2cc(-c3ccc(OC)cc3)n(CC(=O)N3CCN(c4ncccn4)CC3)n2)cc1` [Example 7.03.01], the half-maximal effective concentration (EC50) was determined as 31 nM.
Regarding `COc1cc(N2CCN(C(=O)Cn3nc(-c4cc(C)c(F)cn4)cc3-c3ccccc3)CC2)ncn1` [Example 7.01.159], the EC50 is 39 nM.
For `CCCc1cc(-c2ccc(F)c(C)c2)nn1CC(=O)N1CCN(c2cc(OC)ncn2)CC1` [Example 7.01.79] the value was 26 nM.
In the case of `Cc1cc(-c2cc(C)n(CC(=O)N3CCN(c4ccccn4)CC3)n2)ccc1F` [Example 7.02.21] it was 77 nM; in that of `O=C(Cn1nc(-c2ccc(F)cc2)cc1-c1ccc(F)cc1)N1CCN(c2ncccn2)CC1` [Example 7.01.13], 14 nM.
In the case of `COc1ccnc(N2CCN(C(=O)Cn3nc(-c4ccc(F)c(C)c4)cc3C)CC2)c1` [Example 7.02.22] it was 85 nM.
As for `CCc1cc(-c2cccc(C)c2)nn1CC(=O)N1CCN(c2ncc(OC)cn2)CC1` [Example 7.01.100], the EC50 was 126 nM.
In the case of `CCc1cc(-c2ccc(F)c(C)c2)nn1CC(=O)N1CCN(c2ccccn2)CC1` [Example 7.01.69] it was 79 nM; in that of `CCc1cc(-c2cc(C)c(F)c(C)c2)nn1CC(=O)N1CCN(c2ncc(OC)cn2)CC1` [Example 7.01.141], 346 nM; in that of `Cc1cccc(-c2cc(-c3ccccc3)n(CC(=O)N3CCN(c4ncccn4)CC3)n2)c1` [Example 7.01.165], 4 nM.
For `COCc1cc(-c2ccc(F)c(C)c2)nn1CC(=O)N1CCN(c2cccnn2)CC1` [Example 7.02.19], the EC50 is 1200 nM.
For `Cc1cc(-c2cc(C)n(CC(=O)N3CCN(c4ncnc5[nH]cnc45)CC3)n2)ccc1F` [Example 7.02.25] the value was 92 nM.
In the case of `COCCCc1cc(-c2ccc(F)c(C)c2)nn1CC(=O)N1CCN(c2cc(OC)ncn2)CC1` [Example 7.01.110] it was 137 nM; in that of `COc1cnnc(N2CCN(C(=O)Cn3nc(-c4ccc(F)c(C)c4)cc3C3CC3)CC2)c1` [Example 7.01.45], 1010 nM.
In the case of `N#Cc1ccc(N2CCN(C(=O)Cn3nc(-c4ccccc4)cc3-c3ccccc3)CC2)nc1` [Example 7.02.08] it was 934 nM; in that of `O=C(Cn1nc(-c2ccccc2)cc1-c1ccccc1)N1CCN(c2cccnc2)CC1` [Example 7.02.02], 428 nM.
On to `N#Cc1cccc(-c2cc(-c3ccccc3)n(CC(=O)N3CCN(c4ccccn4)CC3)n2)c1` [Example 7.01.168], for which the EC50 was determined as 12 nM.
`COc1ccc(-c2cc(C(C)C)n(CC(=O)N3CCN(c4cc(C)ccn4)CC3)n2)cc1C` [Example 7.01.52]: the EC50 was 431 nM.
Regarding `O=C(Cn1nc(-c2ccccc2)cc1-c1ccccc1)N1CCN(c2nccc(C(F)(F)F)n2)CC1` [Example 7.02.12], the EC50 worked out at 1260 nM.
For `O=C(Cn1nc(-c2ccccc2)cc1-c1ccccc1)N1CCN(c2nccc3ccccc23)CC1` [Example 7.01.07] the value was 621 nM; for `Cc1cc(-c2cc(-c3ccccc3)n(CC(=O)N3CCN(c4cccnn4)CC3)n2)ccc1F` [Example 7.01.02], 9 nM; for `O=C(Cn1nc(-c2ccc(C(F)F)cc2)cc1-c1ccccc1)N1CCN(c2ncccn2)CC1` [Example 7.01.191], 7 nM.
For `O=C(Cn1nc(-c2ccc(OC(F)F)cc2)cc1-c1ccccc1)N1CCN(c2ccccn2)CC1` [Example 7.01.175] the value was 10 nM.

The values are drawn from US8822464B2, “N-aryl-piperazine derivatives and their use as positive allosteric modulators of mGluR5 receptors” (Boehringer Ingelheim International GmbH, priority 2011, dated 2014).
